Laboratory results from patent publication US20250000874A1, “BACTERIAL METABOLITES AND THEIR USE IN REDUCING INFLAMMATION” (LOYOLA UNIVERSITY OF CHICAGO, priority 2023, published 2025).

Tests used:
[1] = system: human corneal epithelial cells (HCECs); assay: MQ on IL-6 production in HCECs in response to TLR agonists; assay type: cell-based; conditions: for production and secretion of IL6: MQ 50 μM overnight
Experimental: FIG. 26. MQ Reduces IL-6 Response to Toll 3 and Toll 5 Agonist. HCECs were cultured at a uniform density and allowed to adhere. Cells were then incubated overnight in MQ at a concentration of […] at 37° C. The following day, the HCECs were stimulated with FLA at a concentration of 100 ng/ml or P (I:C) at 500 μg/mL for four hours. Supernatants were collected and IL-6 concentrations were determined via ELISA.
To investigate the effects of MQ on cytokine activity, human corneal epithelial cells (HCECs) were stimulated with various TLR agonists and the production of cytokines was measured via ELISA. HCECs were seeded at a density of 2×10^5 cells/well and were treated overnight with MQ at a concentration of 50 μM and the following day they were stimulated with Flagellin (FLA) at 100 ng/ml or Poly (I:C) at a concentration of 500 μg/ml. After 4 hours, supernatant was collected and the concentration of IL-6 was determined via ELISA.
The effects of MQ on various other TLR pathways including: TLR 1/2 (PAM3CSK4), TLR 2/6 (FSL) TLR 4 (Lipopolysaccharide), TLR 7 (Imiquimod), and TLR 9 (ODN2006) was also investigated.

[2] = system: Bone Marrow Derived Macrophage (BMDM); assay: NC on TNFα production by BMDMs in response to TLR agonists (Example 7); assay type: cell-based, mouse
Experimental: (§1) FIG. 32. NC Reduces TNFα Response to Toll 3 Agonist. Macrophages were cultured at a uniform density and allowed to adhere (in the case of BMDMs) or differentiate with PMA (in the case of THP-1s). macrophages were then incubated overnight in NC at a concentration of 50 uM at 37° C. The following day, the BMDMs were stimulated with P(I:C) at 50 ug/mL, 100 ug/mL, or 200 ug/mL for four hours and the THP-1s were stimulated at 200 […]. Supernatants were collected and TNFα concentrations were determined via ELISA.
FIG. 33. TNFα production from Bone Marrow Derived Macrophage (BMDM) stimulation. BMDMs were cultured in DMEM supplemented with Macrophage Colony Stimulating Factor (M-CSF) at 10 ng/ml. The macrophages were then incubated overnight in NC at a concentration of 50 uM at 37° C. The following day they were stimulated with LPS at 1 ng/ml, 10 ng/ml for four hours. Supernatants were collected and TNFα concentrations were determined via ELISA.
(§2) Bone marrow derived macrophages were collected from adult mice (6-8 weeks old). Femurs were obtained and cut with scissors. The connecting muscles were removed and the bones were flushed with PBS. PBS was collected and cells were counted and adjusted to the desired concentrations. […] After 7 days the cells were ready for use. […]
(§3) Once ready, macrophages were then incubated with NC at a concentration of 50 uM overnight. […] Samples were treated for 4 hours and then Supernatant was then collected and the concentration of TNFα was then determined via the commercially available ELISA MAX Deluxe kit (Biolegend), with measurements reported in pg/mL.
(§4) To investigate the effects NC, macrophages were stimulated in vitro with various TLR agonists, and the production of cytokines was measured via ELISA. […] After 4 hours, supernatant was collected and the concentration of TNFα was determined via ELISA.
(§5) Further investigation of NC's impact on TLR signaling involved treating BMDMs with the TLR 4 agonist LPS. […] After 4 hours supernatant was collected and concentration of TNFα was measured via ELISA. […]

THP-1 cells = assay: NC on TNFα production by THP-1s in response to TLR agonists (Example 7); assay type: cell-based, human
Experimental: as §1
FIG. 34. TNFα production from THP-1 stimulation. Thp-1s plated at uniform density and incubated in PMA to differentiate and treated with NC overnight. The following day, cells were then treated with FSL at a concentration of 20 ng/ml and 50 ng/ml. After 4 hours, supernatant was collected and the concentration of TNFα was determined via ELISA.
as §2, with “concentrations. Cells were then plated in DMEM supplemented with Macrophage Colony Stimulating Factor (M-CSF) at 10 ng/ml.” for “concentrations.”
as §3, §4, §5

Compound | production and secretion of IL6 ([1]; Flagellin (FLA) 100 ng/ml 4 hours) | production and secretion of IL6 ([1]; Poly (I:C) 500 μg/ml 4 hours) | production of IL-6 ([1]; MQ alone, 50 μM overnight, no TLR agonist) | cytokine production, other TLR pathways ([1]; PAM3CSK4, FSL, Lipopolysaccharide, Imiquimod, ODN2006, various concentrations) | production and secretion of TNFα ([2]; NC 50 μM overnight, Poly (I:C) 50, 100, 200 μg/ml, 4 hours) | production of TNFα ([2]; NC alone, 50 μM overnight) | cytokine (TNFα) production in response to TLR 4 agonist LPS ([2]; NC overnight, LPS 1 ng/ml and 10 ng/ml, 4 hours) | production and secretion of TNFα (THP-1 cells; NC 50 μM overnight, Poly (I:C) 200 mg/ml or 400 mg/mL, 4 hours) | production of TNFα (THP-1 cells; NC alone, 50 μM overnight) | TNFα production in response to TLR 2/6 agonist FSL-1 (THP-1 cells; NC overnight, FSL 20 ng/ml and 50 ng/ml, 4 hours)
Prednicarbate [MQ] | reduced | reduced | not found to increase | did not exhibit any significant inhibitory effects |  |  |  |  |  | 
CCCCCCCCCCCCCCCC(=O)N[C@@H](C(=O)O)[C@H](C)O [NC, N-Palmitoyl-D-Threonine] |  |  |  |  | reduced | not found to increase | able to reduce | reduced | not found to increase | exhibited inhibitory effects
